Experimental data reported in ChEMBL document CHEMBL1201861, “Genomics of Drug Sensitity in Cancer screening data, Wellcome Trust Sanger Institute”.

Key:
Experiment in all cases: cells
KM-H2 = type: functional, cell-based, Homo sapiens; conditions: Homo sapiens, KM-H2;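 note: growth inhibition of KM-H2 cells, read out by a cell viability assay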
Description: SANGER: Inhibition of human KM-H2 cell growth in a cell viability assay.

DSH1 = type: functional, cell-based; conditions: Homo sapiens;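 note: growth inhibition of human DSH1 cells, measured with a cell viability readout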
Description: SANGER: Inhibition of human DSH1 cell growth in a cell viability assay.

LS-1034 = type: functional, cell-based, Homo sapiens; conditions: Homo sapiens, LS-1034
Description: SANGER: Inhibition of human LS-1034 cell growth in a cell viability assay.

TGBC1TKB = type: functional, cell-based, Homo sapiens; conditions: Homo sapiens, TGBC1TKB;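 note: growth inhibition of TGBC1TKB cells, read out by a cell viability assay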
Description: SANGER: Inhibition of human TGBC1TKB cell growth in a cell viability assay.

SW 954 = type: functional, cell-based, Homo sapiens; conditions: Homo sapiens, SW 954;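 note: growth inhibition of SW954 human cancer cells, read out as cell viability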
Description: SANGER: Inhibition of human SW954 cell growth in a cell viability assay.

SNU-C2B = type: functional, cell-based; conditions: Homo sapiens;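 note: cell viability readout used to measure compound-driven suppression of SNU-C2B cell proliferation, IC50 marking half-maximal growth inhibition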
Description: SANGER: Inhibition of human SNU-C2B cell growth in a cell viability assay.

SF-268 = type: functional, cell-based, Homo sapiens; conditions: Homo sapiens, SF-268;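 note: growth inhibition of SF-268 cells determined with a cell viability assay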
Description: SANGER: Inhibition of human SF268 cell growth in a cell viability assay.

KNS-81-FD = type: functional, cell-based, Homo sapiens; conditions: Homo sapiens, KNS-81-FD;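 note: growth inhibition of KNS-81-FD cells, read out with a cell viability assay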
Description: SANGER: Inhibition of human KNS-81-FD cell growth in a cell viability assay.

LB2241-RCC = type: functional, cell-based, Homo sapiens; conditions: Homo sapiens, LB2241-RCC;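 note: cell viability assay measuring how strongly the cultured human renal carcinoma line is prevented from growing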
NB69 = type: functional, cell-based, Homo sapiens; conditions: Homo sapiens, NB69;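 note: growth inhibition of NB69 cells, determined by a cell viability assay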
Description: SANGER: Inhibition of human NB69 cell growth in a cell viability assay.

A4-Fuk = type: functional, cell-based, Homo sapiens; conditions: Homo sapiens, A4-Fuk;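 note: growth inhibition of A4-Fuk cells, read out by a cell viability assay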
Description: SANGER: Inhibition of human A4-Fuk cell growth in a cell viability assay.

ES7 = type: functional, cell-based, Homo sapiens; conditions: Homo sapiens, ES7;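 note: growth inhibition of cultured human ES7 cells, read out as cell viability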
Description: SANGER: Inhibition of human ES7 cell growth in a cell viability assay.

EW-18 = type: functional, cell-based, Homo sapiens; conditions: Homo sapiens, EW-18; read-out: IC50;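 note: growth inhibition of EW-18 cells, read out by a cell viability assay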
Description: SANGER: Inhibition of human EW-18 cell growth in a cell viability assay.

NCI-H1648 = type: functional, cell-based, Homo sapiens; conditions: Homo sapiens, NCI-H1648;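 note: cell viability assay measuring inhibition of NCI-H1648 cell growth, from the Sanger screening data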
Description: SANGER: Inhibition of human NCI-H1648 cell growth in a cell viability assay.

NCI-H226 = type: functional, cell-based, Homo sapiens; conditions: Homo sapiens, NCI-H226;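 note: cell viability read-out used to gauge growth inhibition of the cells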
Description: SANGER: Inhibition of human NCI-H226 cell growth in a cell viability assay.

ES1 = type: functional, cell-based, Homo sapiens; conditions: Homo sapiens, ES1;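 note: growth inhibition of ES1 cells, read out with a cell viability assay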
IA-LM = type: functional, cell-based; conditions: Homo sapiens;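 note: cell viability assay measuring growth inhibition of human IA-LM cells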
Description: SANGER: Inhibition of human IA-LM cell growth in a cell viability assay.

NCI-H1650 = type: functional, cell-based, Homo sapiens; conditions: Homo sapiens, NCI-H1650;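 note: growth inhibition of human NCI-H1650 cells measured by a cell viability assay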
Description: SANGER: Inhibition of human NCI-H1650 cell growth in a cell viability assay.

KM12 = type: functional, cell-based, Homo sapiens; conditions: Homo sapiens, KM12;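 note: KM12 cell growth inhibition, read out with a cell viability assay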
Description: SANGER: Inhibition of human KM12 cell growth in a cell viability assay.

RH-1 = type: functional, cell-based, Homo sapiens; conditions: Homo sapiens, RH-1;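 note: growth inhibition of human RH-1 cells, read out with a cell viability assay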
LXF-289 cell line = type: functional, cell-based; conditions: Homo sapiens
Description: SANGER: Inhibition of human LXF-289 cell growth in a cell viability assay.

SBC-1 = type: functional, cell-based, Homo sapiens; conditions: Homo sapiens, SBC-1;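 note: cell viability assay measuring growth inhibition of the SBC-1 cell line, IC50 being the concentration that halves growth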
Description: SANGER: Inhibition of human SBC-1 cell growth in a cell viability assay.

KARPAS-45 = type: functional, cell-based, Homo sapiens; conditions: Homo sapiens, KARPAS-45;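 note: inhibition of cell line growth, read out through a viability assay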
Description: SANGER: Inhibition of human KARPAS-45 cell growth in a cell viability assay.

D-263MG = type: functional, cell-based, Homo sapiens; conditions: Homo sapiens, D-263MG
Description: SANGER: Inhibition of human D-263MG cell growth in a cell viability assay.

KINGS-1 = type: functional, cell-based, Homo sapiens; conditions: Homo sapiens, KINGS-1;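 note: cell viability assay measuring suppression of KINGS-1 cell growth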
Description: SANGER: Inhibition of human KINGS-1 cell growth in a cell viability assay.

LB2518-MEL = type: functional, cell-based; conditions: Homo sapiens;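 note: growth inhibition of human LB2518-MEL cells, measured with a cell viability assay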
COLO-684 = type: functional, cell-based, Homo sapiens; conditions: Homo sapiens, COLO-684
ES3 = type: functional, cell-based, Homo sapiens; conditions: Homo sapiens, ES3;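 note: growth inhibition of ES3 cells, read out with a cell viability assay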
Description: SANGER: Inhibition of human ES3 cell growth in a cell viability assay.

AM-38 = type: functional, cell-based, Homo sapiens; conditions: Homo sapiens, AM-38;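 note: growth inhibition of AM-38 cells of human origin, read out by a cell viability assay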
Description: SANGER: Inhibition of human AM-38 cell growth in a cell viability assay.

SK-N-FI = type: functional, cell-based, Homo sapiens; conditions: Homo sapiens, SK-N-FI;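 note: cell viability assay measuring growth inhibition of human SK-N-FI cells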
Description: SANGER: Inhibition of human SK-N-FI cell growth in a cell viability assay.

CGTH-W-1 = type: functional, cell-based, Homo sapiens; conditions: Homo sapiens, CGTH-W-1;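 note: growth inhibition of human CGTH-W-1 cells measured by cell viability assay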
Description: SANGER: Inhibition of human CGTH-W-1 cell growth in a cell viability assay.

OS-RC-2 = type: functional, cell-based, Homo sapiens; conditions: Homo sapiens, OS-RC-2;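 note: growth inhibition of human OS-RC-2 cells, measured by a cell viability assay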
Description: SANGER: Inhibition of human OS-RC-2 cell growth in a cell viability assay.

NCI-H446 = type: functional, cell-based, Homo sapiens; conditions: Homo sapiens, NCI-H446;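 note: growth inhibition of NCI-H446 cells determined by a cell viability assay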
Description: SANGER: Inhibition of human NCI-H446 cell growth in a cell viability assay.

NOMO-1 = type: functional, cell-based, Homo sapiens; conditions: Homo sapiens, NOMO-1;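 note: growth inhibition of human NOMO-1 cells measured by a cell viability assay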
Description: SANGER: Inhibition of human NOMO-1 cell growth in a cell viability assay.

NCI-H1155 = type: functional, cell-based, Homo sapiens; conditions: Homo sapiens, NCI-H1155;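 note: cell growth inhibition measured by a viability assay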
Description: SANGER: Inhibition of human NCI-H1155 cell growth in a cell viability assay.

C2BBe1 = type: functional, cell-based, Homo sapiens; conditions: Homo sapiens, C2BBe1;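 note: growth inhibition of C2BBe1 cells, read out through a viability assay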
Description: SANGER: Inhibition of human C2BBe1 cell growth in a cell viability assay.

PSN1 = type: functional, cell-based, Homo sapiens; conditions: Homo sapiens, PSN1;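 note: suppression of growth of human PSN1 cells, read out by a cell viability assay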
Description: SANGER: Inhibition of human PSN1 cell growth in a cell viability assay.

Mo = type: functional, cell-based, Homo sapiens; conditions: Homo sapiens, Mo
Description: SANGER: Inhibition of human Mo-T cell growth in a cell viability assay.

MLMA = type: functional, cell-based, Homo sapiens; conditions: Homo sapiens, MLMA;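 note: growth inhibition of MLMA cells (human), determined through a cell viability readout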
Description: SANGER: Inhibition of human MLMA cell growth in a cell viability assay.

SK-N-DZ = type: functional, cell-based, Homo sapiens; conditions: Homo sapiens, SK-N-DZ; read-out: IC50;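 note: growth inhibition of the cancer cell line, read out through a viability assay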
Description: SANGER: Inhibition of human SK-N-DZ cell growth in a cell viability assay.

RPMI-8226 = type: functional, cell-based, Homo sapiens; conditions: Homo sapiens, RPMI-8226
Description: SANGER: Inhibition of human RPMI-8226 cell growth in a cell viability assay.

HOP-62 = type: functional, cell-based, Homo sapiens; conditions: Homo sapiens, HOP-62;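 note: cell growth inhibition determined with a viability assay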
Description: SANGER: Inhibition of human HOP-62 cell growth in a cell viability assay.

GOTO = type: functional, cell-based, Homo sapiens; conditions: Homo sapiens, GOTO;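 note: growth inhibition of GOTO cells, read out by a cell viability assay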
Description: SANGER: Inhibition of human GOTO cell growth in a cell viability assay.

KALS-1 = type: functional, cell-based, Homo sapiens; conditions: Homo sapiens, KALS-1; read-out: IC50;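 note: growth inhibition of KALS-1 cells, determined with a cell viability assay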
Description: SANGER: Inhibition of human KALS-1 cell growth in a cell viability assay.

IST-MEL1 = type: functional, cell-based, Homo sapiens; conditions: Homo sapiens, IST-MEL1;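 note: growth inhibition of the cell line, read out with a cell viability assay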
GT3TKB = type: functional, cell-based, Homo sapiens; conditions: Homo sapiens, GT3TKB;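 note: growth inhibition of the cell line, read out with a cell viability assay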
Description: SANGER: Inhibition of human GT3TKB cell growth in a cell viability assay.

SW982 = type: functional, cell-based; conditions: Homo sapiens;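 note: growth inhibition of SW982 cells, read out with a cell viability assay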
Description: SANGER: Inhibition of human SW982 cell growth in a cell viability assay.

EW-16 = type: functional, cell-based, Homo sapiens; conditions: Homo sapiens, EW-16;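 note: growth inhibition of human EW-16 cells, read out as cell viability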
Description: SANGER: Inhibition of human EW-16 cell growth in a cell viability assay.

HL-60 = type: functional, cell-based, Homo sapiens; conditions: Homo sapiens, HL-60;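 note: growth inhibition of human HL-60 cells, read out with a cell viability assay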
Description: SANGER: Inhibition of human HL-60 cell growth in a cell viability assay.

OVCAR-4 = type: functional, cell-based, Homo sapiens; conditions: Homo sapiens, OVCAR-4;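 note: growth inhibition of human OVCAR-4 cells, measured with a cell viability assay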
Description: SANGER: Inhibition of human OVCAR-4 cell growth in a cell viability assay.

SMILES: Cc1cc(N2CCOCC2)cc2[nH]c(-c3c(NC[C@@H](O)c4cccc(Cl)c4)cc[nH]c3=O)nc12
- IC50 (KM-H2): > 5120 nM
- IC50 (DSH1): > 5120 nM
- IC50 (LS-1034): 758 nM
- IC50 (TGBC1TKB): 2310 nM
- IC50 (SW 954): 490 nM
- IC50 (SNU-C2B): 2710 nM
- IC50 (SF-268): 3040 nM
- IC50 (KNS-81-FD): > 5120 nM
- IC50 (LB2241-RCC): > 5120 nM
- IC50 (NB69): 293 nM
- IC50 (A4-Fuk): 57.8 nM
- IC50 (ES7): > 5120 nM
- IC50 (EW-18): > 5120 nM
- IC50 (NCI-H1648): 190 nM
- IC50 (NCI-H226): > 5120 nM
- IC50 (ES1): 1620 nM
- IC50 (IA-LM): > 5120 nM
- IC50 (NCI-H1650): > 5120 nM
- IC50 (KM12): 28.4 nM
- IC50 (RH-1): > 5120 nM
- IC50 (LXF-289 cell line): 1550 nM
- IC50 (SBC-1): > 5120 nM
- IC50 (KARPAS-45): 4010 nM
- IC50 (D-263MG): > 5120 nM
- IC50 (KINGS-1): > 5120 nM
- IC50 (LB2518-MEL): > 5120 nM
- IC50 (COLO-684): > 5120 nM
- IC50 (ES3): > 5120 nM
- IC50 (AM-38): > 5120 nM
- IC50 (SK-N-FI): > 5120 nM
- IC50 (CGTH-W-1): > 5120 nM
- IC50 (OS-RC-2): 1460 nM
- IC50 (NCI-H446): > 5120 nM
- IC50 (NOMO-1): > 5120 nM
- IC50 (NCI-H1155): > 5120 nM
- IC50 (C2BBe1): > 5120 nM
- IC50 (PSN1): 395 nM
- IC50 (Mo): > 5120 nM
- IC50 (MLMA): 2010 nM
- IC50 (SK-N-DZ): 2110 nM
- IC50 (RPMI-8226): > 5120 nM
- IC50 (HOP-62): 936 nM
- IC50 (GOTO): > 5120 nM
- IC50 (KALS-1): > 5120 nM
- IC50 (IST-MEL1): 4600 nM
- IC50 (GT3TKB): > 5120 nM
- IC50 (SW982): 718 nM
- IC50 (EW-16): 206 nM
- IC50 (HL-60): 286 nM
- IC50 (OVCAR-4): 4870 nM

SMILES: NC(=O)Nc1cc(-c2cccc(F)c2)sc1C(=O)N[C@H]1CCCNC1 [AZD-7762]
- IC50 (KM-H2): 1220 nM
- IC50 (DSH1): 1690 nM
- IC50 (LS-1034): > 2000 nM
- IC50 (TGBC1TKB): 1920 nM
- IC50 (SW 954): 401 nM
- IC50 (SNU-C2B): 281 nM
- IC50 (SF-268): 881 nM
- IC50 (KNS-81-FD): > 2000 nM
- IC50 (LB2241-RCC): 61 nM
- IC50 (NB69): 705 nM
- IC50 (A4-Fuk): 74.9 nM
- IC50 (ES7): 160 nM
- IC50 (EW-18): 1600 nM
- IC50 (NCI-H1648): > 2000 nM
- IC50 (NCI-H226): > 2000 nM
- IC50 (ES1): 71.5 nM
- IC50 (IA-LM): 1400 nM
- IC50 (NCI-H1650): 1040 nM
- IC50 (KM12): 51.6 nM
- IC50 (RH-1): 227 nM
- IC50 (LXF-289 cell line): 676 nM
- IC50 (SBC-1): > 2000 nM
- IC50 (KARPAS-45): 168 nM
- IC50 (D-263MG): 909 nM
- IC50 (KINGS-1): 1420 nM
- IC50 (LB2518-MEL): > 2000 nM
- IC50 (COLO-684): 294 nM
- IC50 (ES3): 102 nM
- IC50 (AM-38): > 2000 nM
- IC50 (SK-N-FI): 1490 nM
- IC50 (CGTH-W-1): 14.2 nM
- IC50 (OS-RC-2): 620 nM
- IC50 (NCI-H446): 748 nM
- IC50 (NOMO-1): 61.2 nM
- IC50 (NCI-H1155): 739 nM
- IC50 (C2BBe1): 689 nM
- IC50 (PSN1): 591 nM
- IC50 (Mo): > 2000 nM
- IC50 (MLMA): 28.5 nM
- IC50 (SK-N-DZ): 531 nM
- IC50 (RPMI-8226): 175 nM
- IC50 (HOP-62): 726 nM
- IC50 (GOTO): 31.2 nM
- IC50 (KALS-1): 326 nM
- IC50 (IST-MEL1): 226 nM
- IC50 (GT3TKB): 1490 nM
- IC50 (SW982): 784 nM
- IC50 (EW-16): 538 nM
- IC50 (HL-60): 774 nM
- IC50 (OVCAR-4): 320 nM

SMILES: C[C@@H](Oc1cc(-c2cnn(C3CCNCC3)c2)cnc1N)c1c(Cl)ccc(F)c1Cl [CRIZOTINIB]
- IC50 (KM-H2): > 2000 nM
- IC50 (DSH1): > 2000 nM
- IC50 (LS-1034): > 2000 nM
- IC50 (TGBC1TKB): > 2000 nM
- IC50 (SW 954): > 2000 nM
- IC50 (SNU-C2B): > 2000 nM
- IC50 (SF-268): > 2000 nM
- IC50 (KNS-81-FD): > 2000 nM
- IC50 (LB2241-RCC): > 2000 nM
- IC50 (NB69): > 2000 nM
- IC50 (A4-Fuk): > 2000 nM
- IC50 (ES7): > 2000 nM
- IC50 (EW-18): > 2000 nM
- IC50 (NCI-H1648): > 2000 nM
- IC50 (NCI-H226): > 2000 nM
- IC50 (ES1): > 2000 nM
- IC50 (IA-LM): > 2000 nM
- IC50 (NCI-H1650): > 2000 nM
- IC50 (KM12): 707 nM
- IC50 (RH-1): > 2000 nM
- IC50 (LXF-289 cell line): > 2000 nM
- IC50 (SBC-1): > 2000 nM
- IC50 (KARPAS-45): > 2000 nM
- IC50 (D-263MG): > 2000 nM
- IC50 (KINGS-1): 750 nM
- IC50 (LB2518-MEL): > 2000 nM
- IC50 (COLO-684): > 2000 nM
- IC50 (ES3): > 2000 nM
- IC50 (AM-38): > 2000 nM
- IC50 (SK-N-FI): > 2000 nM
- IC50 (CGTH-W-1): > 2000 nM
- IC50 (OS-RC-2): > 2000 nM
- IC50 (NCI-H446): > 2000 nM
- IC50 (NOMO-1): > 2000 nM
- IC50 (NCI-H1155): > 2000 nM
- IC50 (C2BBe1): > 2000 nM
- IC50 (PSN1): > 2000 nM
- IC50 (Mo): > 2000 nM
- IC50 (MLMA): > 2000 nM
- IC50 (SK-N-DZ): > 2000 nM
- IC50 (RPMI-8226): > 2000 nM
- IC50 (HOP-62): > 2000 nM
- IC50 (GOTO): > 2000 nM
- IC50 (KALS-1): > 2000 nM
- IC50 (IST-MEL1): > 2000 nM
- IC50 (GT3TKB): > 2000 nM
- IC50 (SW982): > 2000 nM
- IC50 (EW-16): > 2000 nM
- IC50 (HL-60): > 2000 nM
- IC50 (OVCAR-4): > 2000 nM
